Data from ChEMBL document CHEMBL1201862, “PubChem BioAssay data set” (2004).
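All cell lines were grown in 96-well plates and treated with compound for 48 hours. Here, GI50 denotes the concentration required for 50% inhibition of growth.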 Activity calls are given as the source filed them. Cut-off read from the data, not from the text of the source: active = GI50 up to about 1.1 µM and inactive = higher.

What was measured:
Assay in all cases: growth of human tumour cells (NCI), 48 h
A498 = system: A498
A549 = system: A549
ACHN = system: ACHN
BT-549 = system: BT-549
CAKI-1 = system: CAKI-1
CCRF-CEM = system: CCRF-CEM
COLO 205 = system: COLO 205
DU-145 = system: DU-145
EKVX = system: EKVX
HCC 2998 = system: HCC 2998
HCT-116 = system: HCT-116
HCT-15 = system: HCT-15
HL-60 = system: HL-60
HOP-62 = system: HOP-62
HOP-92 = system: HOP-92
HT-29 = system: HT-29
Hs-578T = system: Hs-578T
IGROV-1 = system: IGROV-1
K562 = system: K562
KM12 = system: KM12
LOX IMVI = system: LOX IMVI
M14 = system: M14
MCF7 = system: MCF7
MDA-MB-231 = system: MDA-MB-231
MDA-MB-435 = system: MDA-MB-435
MDA-N = system: MDA-N
MOLT-4 = system: MOLT-4
Malme-3M = system: Malme-3M
NCI-H226 = system: NCI-H226
NCI-H23 = system: NCI-H23
NCI-H460 = system: NCI-H460
NCI-H522 = system: NCI-H522
NCI/ADR-RES = system: NCI/ADR-RES
OVCAR-3 = system: OVCAR-3
OVCAR-4 = system: OVCAR-4
OVCAR-5 = system: OVCAR-5
OVCAR-8 = system: OVCAR-8
PC-3 = system: PC-3
RPMI-8226 = system: RPMI-8226
RXF 393 = system: RXF 393
SF-268 = system: SF-268
SF-295 = system: SF-295
SF-539 = system: SF-539
SK-MEL-28 = system: SK-MEL-28
SK-MEL-2 = system: SK-MEL-2
SK-MEL-5 = system: SK-MEL-5
SK-OV-3 = system: SK-OV-3
SN12C = system: SN12C
SNB-19 = system: SNB-19
SR = system: SR
SW-620 = system: SW-620
T47D = system: T47D
TK-10 = system: TK-10
U-251 = system: U-251
UACC-257 = system: UACC-257
UACC-62 = system: UACC-62
UO-31 = system: UO-31

C=CCNC(=S)N/N=C1\C(=O)Nc2ccc([N+](=O)[O-])cc21
GI50 (A498): 21.1 µM (inactive)
GI50 (A549): 34.2 µM (inactive)
GI50 (ACHN): 23.3 µM (inactive)
GI50 (BT-549): 52.4 µM (inactive)
GI50 (CAKI-1): 14.2 µM (inactive)
GI50 (CCRF-CEM): 5.13 µM (inactive)
GI50 (COLO 205): 92 µM (inactive)
GI50 (DU-145): 31.4 µM (inactive)
GI50 (EKVX): 42.2 µM (inactive)
GI50 (HCC 2998): 23.3 µM (inactive)
GI50 (HCT-116): 24.8 µM (inactive)
GI50 (HCT-15): 7.57 µM
GI50 (HL-60): 54.7 µM (inactive)
GI50 (HOP-62): > 100 µM (inactive)
GI50 (HOP-92): 44.2 µM (inactive)
GI50 (HT-29): 68.7 µM (inactive)
GI50 (Hs-578T): > 100 µM (inactive)
GI50 (IGROV-1): 23.3 µM (inactive)
GI50 (K562): 32.1 µM (inactive)
GI50 (KM12): 46.6 µM (inactive)
GI50 (LOX IMVI): 81.8 µM (inactive)
GI50 (M14): 62.1 µM (inactive)
GI50 (MCF7): 36.1 µM (inactive)
GI50 (MDA-MB-231): > 100 µM (inactive)
GI50 (MDA-MB-435): 89.3 µM (inactive)
GI50 (MDA-N): 83 µM (inactive)
GI50 (MOLT-4): 16.7 µM (inactive)
GI50 (Malme-3M): > 100 µM (inactive)
GI50 (NCI-H226): > 100 µM (inactive)
GI50 (NCI-H23): 38.6 µM (inactive)
GI50 (NCI-H460): 16.6 µM (inactive)
GI50 (NCI-H522): 64.1 µM (inactive)
GI50 (NCI/ADR-RES): 17.7 µM (inactive)
GI50 (OVCAR-3): 69.2 µM (inactive)
GI50 (OVCAR-4): 41.4 µM (inactive)
GI50 (OVCAR-5): > 100 µM (inactive)
GI50 (OVCAR-8): 50.5 µM (inactive)
GI50 (PC-3): > 100 µM (inactive)
GI50 (RPMI-8226): 57.3 µM (inactive)
GI50 (RXF 393): 16.8 µM (inactive)
GI50 (SF-268): 57 µM (inactive)
GI50 (SF-295): 29 µM (inactive)
GI50 (SF-539): > 100 µM (inactive)
GI50 (SK-MEL-28): > 100 µM (inactive)
GI50 (SK-MEL-2): > 100 µM (inactive)
GI50 (SK-MEL-5): 30.1 µM (inactive)
GI50 (SK-OV-3): 34 µM (inactive)
GI50 (SN12C): 35.5 µM (inactive)
GI50 (SNB-19): 55.7 µM (inactive)
GI50 (SR): 10.3 µM (inactive)
GI50 (SW-620): 82 µM (inactive)
GI50 (T47D): 25.5 µM (inactive)
GI50 (TK-10): 26.4 µM (inactive)
GI50 (U-251): 64.3 µM (inactive)
GI50 (UACC-257): 71 µM (inactive)
GI50 (UACC-62): > 100 µM (inactive)
GI50 (UO-31): 31.2 µM (inactive)
